Data from PubChem BioAssay (NCI).
Values joined by “and” are separate entries in the source; they are usually repeats but may differ in a detail not shown here. Equal entries are not always repeated.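 Grown in 96-well plates, cells were treated for 48 hours with each compound at five concentrations. Insufficient inhibition: endpoint recorded as highest concentration tested. GI50: concentration for 50% inhibition of growth. Definition used: TGI = concentration required for complete inhibition of growth.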 Where a SMILES comes first, the peptide text is derived from it. [ ]: non-standard residue; d: D form. The star is where a group is joined. ξ: configuration not given here. ξD = NC(CC(=O)O)C(=O)O; Ac3c = NC1(C(=O)O)CC1; Boc = CC(C)(C)OC(=O)*; OBn = c1ccc(CO*)cc1

How the values were obtained:
Experiment in all cases: NCI tumour cell line growth inhibition, 48 h
MCF7 breast = tested on: MCF7 breast
RXF 393 renal = tested on: RXF 393 renal
DU-145 prostate = tested on: DU-145 prostate
MDA-MB-435 = tested on: MDA-MB-435
SNB-19 CNS = tested on: SNB-19 CNS
K-562 leukemia = tested on: K-562 leukemia
RPMI-8226 leukemia = tested on: RPMI-8226 leukemia
T-47D breast = tested on: T-47D breast
EKVX NSCLC = tested on: EKVX NSCLC
HS 578T breast = tested on: HS 578T breast

| SMILES | TGI (MCF7 breast) [µM] | TGI (RXF 393 renal) [µM] | TGI (DU-145 prostate) [µM] | TGI (MDA-MB-435) [µM] | TGI (SNB-19 CNS) | TGI (K-562 leukemia) [µM] | TGI (RPMI-8226 leukemia) [µM] | TGI (T-47D breast) [µM] | TGI (EKVX NSCLC) [µM] | TGI (HS 578T breast) [µM] | GI50 (SNB-19 CNS) [µM] | GI50 (MCF7 breast) [µM] | GI50 (RXF 393 renal) [µM] | GI50 (DU-145 prostate) [µM] | GI50 (MDA-MB-435) [µM] | GI50 (K-562 leukemia) [µM] | GI50 (RPMI-8226 leukemia) [µM] | GI50 (T-47D breast) [µM] | GI50 (HS 578T breast) [µM] |
| --- | --- | --- | --- | --- | --- | --- | --- | --- | --- | --- | --- | --- | --- | --- | --- | --- | --- | --- | --- |
| O=C1CCC2(CC1CCSc1ccccc1)OCCO2 (centres undefined) | > 100 | > 100 | > 100 | > 100 | > 100 µM | > 100 | > 100 | > 100 | > 100 | > 100 | – | – | – | – | – | – | – | – | – |
| COCN1CCN=c2c1c1c3c(c4ccccc4n23)CCC1 | > 100 | > 100 | > 100 | > 100 | > 100 µM | > 100 | > 100 | > 100 | > 100 | > 100 | – | – | – | – | – | – | – | – | – |
| Cc1cn(CC2=NCCCN2)c(=O)[nH]c1=O | > 100 | > 100 | > 100 | – | > 100 µM | > 100 | > 100 | > 100 | > 100 | > 100 | – | – | – | – | – | – | – | – | – |
| COc1c(OC)c(O)c2c(=O)c(OC)c(-c3ccc4c(c3)OCO4)oc2c1O | > 100 | > 100 | > 100 | > 100 | > 100 µM | > 100 | – | > 100 | > 100 | > 100 | – | – | – | – | – | – | – | – | – |
| CN(C)CCCNc1c2ccccc2nc2cccc([N+](=O)[O-])c12 | 0.00188 | – | 0.0131 | 0.00242 | 0.0171 µM and 0.142 µM | > 100 | – | – | 0.448 | 0.0148 | 0.0303 | – | – | – | – | – | – | – | – |
| C1#Cc2ccccc2OCCOc2ccccc2C#Cc2ccccc2OCCOc2ccccc21 | > 100 | 35.4 | > 100 | > 100 | > 100 µM | 24.3 | 42.4 | > 100 | 98.9 | 64.3 | – | – | – | – | – | – | – | – | – |
| COC(=O)C1(NC(=O)C(CC(=O)OCc2ccccc2)NC(=O)OC(C)(C)C)CC1 (centres undefined) (Boc-[ξD](OBn)-[Ac3c]-OMe) | > 100 | > 100 | > 100 | > 100 | > 100 µM | > 100 | > 100 | > 100 | > 100 | > 100 | – | – | – | – | – | – | – | – | – |
| Cc1cc2ccccc2n1CC(=O)N1CCCC1 | > 100 | > 100 | > 100 | > 100 | > 100 µM | > 100 | > 100 | > 100 | > 100 | > 100 | – | – | – | – | – | – | – | – | – |
| S=c1nc2[nH]c3ccc(Br)cc3c2n[nH]1 | 44.4 | > 100 | > 100 | 38.4 | > 100 µM | > 100 | > 100 | > 100 | > 100 | > 100 | – | – | – | – | – | – | – | – | – |
| O=C1CSC2=NCC3(NN12)c1ccccc1-c1ccccc13 | > 10 | > 10 | > 10 | > 10 | > 10 µM | > 10 | > 10 | > 10 | > 10 | > 10 | – | – | – | – | – | – | – | – | – |
| CC(=O)OCc1cc(=O)n(C)c2c3c4c(cc12)c(C)cc(=O)n4CO3 | 17 | 3.33 | – | – | 72.8 µM | 27.7 | 11.1 | – | 11.2 | – | – | – | – | – | – | – | – | – | – |
| O=c1[nH]c(=O)n(COCc2ccccc2)c2ccc(Br)cc12 | > 100 | > 100 | > 100 | > 100 | > 100 µM | > 100 | – | – | > 100 | – | – | – | – | – | – | – | – | – | – |
| OCC(Cn1cncn1)(c1ccc(F)cc1F)n1cncn1 (centres undefined) | > 100 | > 100 | > 100 | > 100 | > 100 µM | > 100 | > 100 | > 100 | – | > 100 | – | – | – | – | – | – | – | – | – |
| CSc1nc(NC2OCC(O)C(O)C2O)c(N)c(=O)n1C (centres undefined) | > 100 | > 100 | – | – | > 100 µM | > 100 | > 100 | – | > 100 | – | – | – | – | – | – | – | – | – | – |
| Nc1ccccc1NC(=O)CCCCCCC(=O)Nc1ccc2c(c1)/C(=C/c1ccc[nH]1)C(=O)N2 | > 100 | > 100 | > 100 | > 100 | > 100 µM | > 100 | > 100 | > 100 | – | > 100 | > 100 | 3.6 | > 100 | 7.06 | 14.7 | 8.75 | 2.47 | 3.67 | 47.6 |
| Cc1ccc(C)c(COCCOCn2cc(Br)c(N)nc2=O)c1 | > 100 | > 100 | > 100 | > 100 | > 100 µM | > 100 | – | > 100 | > 100 | > 100 | – | – | – | – | – | – | – | – | – |
| Cc1ccc(NC(=S)Nc2c(C)n(C)n(-c3ccccc3)c2=O)cc1 | > 100 | > 100 | > 100 | > 100 | > 100 µM | > 100 | > 100 | – | > 100 | > 100 | – | – | – | – | – | – | – | – | – |
| COc1cccc2c1C1(O)C2CCCC12OCCCO2 (centres undefined) | – | > 100 | – | – | > 100 µM | > 100 | > 100 | – | – | – | – | – | – | – | – | – | – | – | – |
| [N-]=[N+]=NC1CC(n2cc(COCC(F)(F)F)c(=O)[nH]c2=O)OC1CO (centres undefined) | – | > 100 | – | – | > 100 µM | > 100 | > 100 | – | > 100 | – | – | – | – | – | – | – | – | – | – |
| OCC(O)C1OC2CC1Nc1ccccc1N2 (centres undefined) | – | – | > 100 | > 100 | > 100 µM | > 100 | > 100 | > 100 | > 100 | > 100 | – | – | – | – | – | – | – | – | – |
| CCOC(=O)c1c2c(n(-c3ccc(OC)cc3)c1C)C(=O)C(=O)c1ccccc1-2 | 6.24 | 4.05 | 3.06 | 0.351 | 19 µM | – | 2.86 | 4.44 | 4.09 | 6.32 | – | – | – | – | – | – | – | – | – |
| CC(C)(C)OC(=O)NC(Cc1ccc(O)cn1)C(N)=O (centres undefined) | > 100 | > 100 | > 100 | > 100 | > 100 µM | – | > 100 | – | > 100 | > 100 | – | – | – | – | – | – | – | – | – |
